Test results as given in paper PMC12595484, “Optimizing multifunctional fluorescent ligands for intracellular labeling” (Proceedings of the National Academy of Sciences of the …, 2025).

Test: Spectroscopy of HaloTag ligands and HaloTag conjugates
Type: physicochemical
Conditions: 10 mM HEPES, pH 7.3
Procedure: Detailed descriptions of the materials and methods are provided in the supporting information. Multifunctional rhodamine–HaloTag ligands (13HTL–16HTL and 18HTL–20HTL) were synthesized using palladium-catalyzed cross-coupling reactions to install 3-carboxyazetidine moieties onto rhodamine scaffolds, followed by amide bond formation with biotin–PEG2–NH2, (S)-JQ1–PEG2–NH2, or (R)-JQ1–PEG2–NH2. Spectroscopic properties (λabs, λem, ε, and Φf) were determined in 10 mM HEPES, pH 7.3. The lactone–zwitterion equilibrium constants (KL–Z) were measured in 1:1 (v/v) dioxane–water mixtures. Octanol–water distribution coefficients (logD7.4) were determined by miniaturized shake-flask partitioning experiments using PBS (pH 7.4) and 1-octanol. Cell culture experiments employed HEK293T, U2OS, and Neuro2a cells transfected with HaloTag fusion constructs and labeled with ligands (100 nM to 1 μM, 0.5 to 2 h at 37 °C), followed by fluorescence microscopy using confocal or lattice light-sheet microscopy. Affinity purification studies utilized streptavidin magnetic beads to capture biotin-labeled HaloTag conjugates, with analysis by SDS-PAGE and in-gel fluorescence detection. […]
HaloTag protein purification. The bacterial expression vector pRSET-A (Invitrogen) was used to recombinantly express HaloTag (HT7; Promega).1 The soluble 6×His-Tagged HaloTag protein was affinity purified by immobilized metal affinity chromatography (IMAC) on a 5 -mL Fast Flow HiTrap Sepharose 6 column (Cytiva) with a 0–200 mM imidazole elution gradient using an Avant Protein Purification System (ÄKTA). A280 peak fractions were pooled, concentrated by a spin concentrator, and dialyzed 3× into tris-buffered saline (TBS). The amino acid sequence of HaloTag (HT7) expressed from pRSET-A is noted below; the annotated DNA and amino acid sequences […]
Spectroscopy of HaloTag ligands and HaloTag conjugates. Compounds 13HTL–16HTL, 18HTL, and 19HTL were prepared as stock solutions in DMSO and diluted such that the final DMSO […]
All measurements were taken at ambient temperature (22
± 2 °C). Absorption spectra were recorded on a Cary Model 100 spectrometer (Agilent) using 1-cm path length 1.0-mL quartz microcuvettes from Starna Cells. Fluorescence spectra were recorded on a Cary Eclipse fluorometer (Varian) using 1-cm path length 3.5-mL quartz cuvettes (Starna Cells). As before,2-4 HaloTag protein was used as a 100 μM solution in 1× TBS. HaloTag ligands 13HTL–16HTL, 18HTL, and 19HTL (5 μM) were dissolved in 10 mM HEPES, pH 7.3, containing 0.1 mg/mL CHAPS. An aliquot of HaloTag protein (1.5 equiv) was added, and the resulting mixture was incubated until a consistent absorbance signal was observed (60–120 min).
To measure the fold-increase of absorbance upon HaloTag binding, a “no HaloTag” control experiment was performed where an equivalent volume of TBS blank was added in place of the protein. Reported values for extinction coefficient (ε) are averages of at least two measurements. […]
Quantum yield determination. All reported absolute fluorescence quantum yield values (Φf) were measured in our laboratory under identical conditions using a Quantaurus-QY spectrometer (model C11374, Hamamatsu). This instrument uses an integrating sphere to determine photons absorbed and emitted by a sample. Measurements were performed using dilute samples (absorbance < 0.1), and self-absorption corrections were performed using the instrument software.5 Reported values are averages of at least two measurements.
Determination of logD7.4. The log of distribution coefficients at pH 7.4 was determined in octanol–phosphate-buffered saline (PBS) using a miniaturized shake flask setup described previously.6, 7 Briefly, 150 mL each of octanol and PBS pH 7.4 were stirred vigorously for 12–16 h. The layers were allowed to stand for at least 24 h for phase separation. The separated layers were collected and served as PBS saturated with octanol (PBS*) and octanol saturated with PBS […]

Structure (SMILES)	Φf	ε	λabs [nm]	λem [nm]
C[Si]1(C)C2=CC(=[N+]3CC(C(=O)NCCOCCOCCNC(=O)CCCC[C@@H]4SC[C@@H]5NC(=O)N[C@@H]54)C3)C=CC2=C(c2cc(C(=O)NCCOCCOCCCCCCCl)ccc2C(=O)[O-])c2ccc(N3CCC3)cc21 (some centres unmarked) [15HTL, biotin–JF646–HaloTag ligand]	0.56	34,000 M^−1cm^−1	647	666
O=C(CCCCC1SCC2NC(=O)NC21)NCCOCCOCCNC(=O)C1C[N+](=c2ccc3c(-c4cc(C(=O)NCCOCCOCCCCCCCl)ccc4C(=O)[O-])c4ccc(N5CCC5)cc4oc-3c2)C1 (centres unmarked) [13HTL, biotin–JF549–HaloTag ligand]	0.90	92,000 M^−1cm^−1	552	575
CC1(C)C2=CC(=[N+]3CC(C(=O)NCCOCCOCCNC(=O)CCCC[C@@H]4SC[C@@H]5NC(=O)N[C@@H]54)C3)C=CC2=C(c2cc(C(=O)NCCOCCOCCCCCCCl)ccc2C(=O)[O-])c2ccc(N3CCC3)cc21 (some centres unmarked) [14HTL, biotin–JF608–HaloTag ligand]	0.65	92,300 M^−1cm^−1	610	634
C[Si]1(C)c2cc(N3CC(F)C3)ccc2C2(OC(=O)c3ccc(C(=O)NCCOCCOCCCCCCCl)cc32)c2ccc(N3CC(F)C3)cc21 [6HTL, JF635–HaloTag ligand, reference compound]	0.60	~ 400 M^−1cm^−1	640	658
C[Si]1(C)C2=CC(=[N+]3CC(F)(C(=O)NCCOCCOCCNC(=O)CCCC[C@@H]4SC[C@@H]5NC(=O)N[C@@H]54)C3)C=CC2=C(c2cc(C(=O)NCCOCCOCCCCCCCl)ccc2C(=O)[O-])c2ccc(N3CC(F)C3)cc21 (some centres unmarked) [16HTL, biotin–JF635–HaloTag ligand]	0.60	2,900 M^−1cm^−1	636	655
